Target: T1, recombinant guanylate cyclase reporter cell line (Rattus norvegicus, UniProt P19686+P20595)
T1 construct: expressed in transfected cells; host or cells: recombinant reporter cell line
T1 sequence (P19686 1-690): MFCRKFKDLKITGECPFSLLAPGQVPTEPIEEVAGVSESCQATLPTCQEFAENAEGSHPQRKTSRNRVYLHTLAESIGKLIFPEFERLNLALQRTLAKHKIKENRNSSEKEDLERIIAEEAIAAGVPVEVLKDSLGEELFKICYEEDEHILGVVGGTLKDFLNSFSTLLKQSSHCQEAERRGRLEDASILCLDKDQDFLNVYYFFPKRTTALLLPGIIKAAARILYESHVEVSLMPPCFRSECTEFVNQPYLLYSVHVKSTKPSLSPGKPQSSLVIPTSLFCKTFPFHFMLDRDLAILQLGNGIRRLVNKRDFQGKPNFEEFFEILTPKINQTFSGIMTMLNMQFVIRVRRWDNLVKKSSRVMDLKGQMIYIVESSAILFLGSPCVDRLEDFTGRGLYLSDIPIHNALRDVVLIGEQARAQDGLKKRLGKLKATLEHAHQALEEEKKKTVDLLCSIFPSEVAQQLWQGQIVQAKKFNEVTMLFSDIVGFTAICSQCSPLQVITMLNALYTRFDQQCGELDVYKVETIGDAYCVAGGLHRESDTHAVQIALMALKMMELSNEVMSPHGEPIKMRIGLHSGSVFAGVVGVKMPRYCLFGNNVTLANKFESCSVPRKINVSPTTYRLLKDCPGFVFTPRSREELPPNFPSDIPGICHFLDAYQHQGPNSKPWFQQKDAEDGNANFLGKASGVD
T1 sequence (P20595 1-619): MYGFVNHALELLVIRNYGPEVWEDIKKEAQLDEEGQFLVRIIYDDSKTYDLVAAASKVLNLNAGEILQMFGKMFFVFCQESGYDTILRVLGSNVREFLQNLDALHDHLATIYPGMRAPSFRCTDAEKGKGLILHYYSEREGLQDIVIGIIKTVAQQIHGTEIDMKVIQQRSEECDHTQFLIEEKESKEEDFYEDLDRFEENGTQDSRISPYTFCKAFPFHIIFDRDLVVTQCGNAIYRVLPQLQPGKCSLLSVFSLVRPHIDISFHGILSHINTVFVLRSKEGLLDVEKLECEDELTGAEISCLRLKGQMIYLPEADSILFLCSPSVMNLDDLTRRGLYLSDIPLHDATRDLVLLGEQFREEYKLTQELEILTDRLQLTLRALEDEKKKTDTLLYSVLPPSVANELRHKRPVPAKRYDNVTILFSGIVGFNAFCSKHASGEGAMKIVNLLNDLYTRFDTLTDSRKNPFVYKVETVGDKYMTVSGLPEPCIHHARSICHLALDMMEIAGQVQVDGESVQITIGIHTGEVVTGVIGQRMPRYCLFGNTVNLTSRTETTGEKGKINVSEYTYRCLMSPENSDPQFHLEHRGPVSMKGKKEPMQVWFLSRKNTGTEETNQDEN
Assay: Effect on a recombinant guanylate cyclase reporter cell line
Assay type: cell-based
Conditions: MEC = minimum effective concentration; in some cases mean values for individual determinations
Experimental: B-2. Effect on a Recombinant Guanylate Cyclase Reporter Cell Line
The cellular effect of the inventive compounds is determined using a recombinant guanylate cyclase reporter cell line, as described in F. Wunder et al., Anal. Biochem. 339, 104-112 (2005).
Representative MEC values (MEC=minimum effective concentration) for the inventive compounds are shown in the table below (in some cases as mean values for individual determinations): […]

| Compound | MEC [µM] |
| --- | --- |
| Cc1cc(OCc2c(F)cccc2F)c2nc(C)c(-c3cnn(CCCc4nnn[nH]4)c3)n2c1 [Example 101, 8-[(2,6-Difluorobenzyl)oxy]-2,6-dimethyl-3-{1-[3-(1H-tetrazol-5-yl)propyl]-1H-pyrazol-4-yl}imidazo[1,2-a]pyridine] | 0.1 |
| Cc1cc(OCc2c(F)cccc2F)c2nc(C)c(-c3cnn(CCC(=O)NC4CC4)c3)n2c1 [Example 114, N-Cyclopropyl-3-(4-{8-[(2,6-difluorobenzyl)oxy]-2,6-dimethylimidazo[1,2-a]pyridin-3-yl}-1H-pyrazol-1-yl)propanamide] | 0.3 |
| Cc1cc(OCc2c(F)cccc2F)c2nc(C)c(-c3cnn(CC(C)(C)N)c3)n2c1.Cl [Example 117, 1-(4-{8-[(2,6-Difluorobenzyl)oxy]-2,6-dimethylimidazo[1,2-a]pyridin-3-yl}-1H-pyrazol-1-yl)-2-methylpropan-2-amine hydrochloride] | 0.1 |
| Cc1cc(OCc2c(F)cccc2F)c2nc(C)c(-c3cnn(CCN4CCOCC4)c3)n2c1 [Example 118, 8-[(2,6-Difluorobenzyl)oxy]-2,6-dimethyl-3-{1-[2-(morpholin-4-yl)ethyl]-1H-pyrazol-4-yl}imidazo[1,2-a]pyridine] | 0.03 |
| Cc1nc2c(OCc3c(F)cccc3F)cccn2c1-c1cnn(CCN2CCOCC2)c1 [Example 119] | 0.1 |
| Cc1cc(OCc2c(F)cccc2F)c2nc(C)c(-c3cccc(CN4CCN(C)CC4)c3)n2c1 [Example 120] | 0.3 |
| Cc1nc2c(OCc3c(F)cccc3F)cccn2c1-c1cnn(-c2cccnc2)c1 [Example 121] | 1.0 |
| Cc1nc2c(OCc3c(F)cccc3F)cccn2c1-c1cnn(-c2cncc(F)c2)c1 [Example 122] | 3.0 |
| Cc1nc2c(OCc3c(F)cccc3F)cccn2c1-c1cnn(-c2ccc(F)cc2)c1 [Example 123, 8-[(2,6-Difluorobenzyl)oxy]-3-[1-(4-fluorophenyl)-1H-pyrazol-4-yl]-2-methylimidazo[1,2-a]pyridine] | 0.3 |
| Cc1nc2c(OCc3c(F)cccc3F)cccn2c1-c1nc(N)n[nH]1 [Example 124, 5-{8-[(2,6-Difluorobenzyl)oxy]-2-methylimidazo[1,2-a]pyridin-3-yl}-1H-1,2,4-triazol-3-amine] | 3.0 |
| Cc1nc2c(OCc3c(F)cccc3F)cccn2c1-c1nc(N)n(CC(F)(F)F)n1 [Example 125, 3-{8-[(2,6-Difluorobenzyl)oxy]-2-methylimidazo[1,2-a]pyridin-3-yl}-1-(2,2,2-trifluoroethyl)-1H-1,2,4-triazol-5-amine] | 3.0 |
| Cc1cc(OCc2c(F)cccc2F)c2nc(C)c(-c3n[nH]c(C(F)(F)F)n3)n2c1 [Example 126, 8-[(2,6-Difluorobenzyl)oxy]-2,6-dimethyl-3-[5-(trifluoromethyl)-1H-1,2,4-triazol-3-yl]imidazo[1,2-a]pyridine] | 3.0 |
| Cc1cc(OCc2c(F)cccc2F)c2nc(C)c(-c3cn(CC(C)(C)N)nc3C)n2c1.O=CO [Example 127, 1-(4-{8-[(2,6-Difluorobenzyl)oxy]-2,6-dimethylimidazo[1,2-a]pyridin-3-yl}-3-methyl-1H-pyrazol-1-yl)-2-methylpropan-2-amine formate] | 0.3 |
| Cc1cc(OCc2c(F)cccc2F)c2nc(C)c(-c3nc[nH]n3)n2c1 [Example 128, 8-[(2,6-Difluorobenzyl)oxy]-2,6-dimethyl-3-(1H-1,2,4-triazol-3-yl)imidazo[1,2-a]pyridine] | 1.0 |
| Cc1cc(OCc2c(F)cccc2F)c2nc(C)c(-c3ncn(CC(C)(C)N)n3)n2c1 [Example 129, 1-(3-{8-[(2,6-Difluorobenzyl)oxy]-2,6-dimethylimidazo[1,2-a]pyridin-3-yl}-1H-1,2,4-triazol-1-yl)-2-methylpropan-2-amine] | 1.0 |
| Cc1cc(OCc2c(F)cccc2F)c2nc(C)c(-c3nnc(CC(C)(C)N)o3)n2c1 [Example 130, 1-(5-{8-[(2,6-Difluorobenzyl)oxy]-2,6-dimethylimidazo[1,2-a]pyridin-3-yl}-1,3,4-oxadiazol-2-yl)-2-methylpropan-2-amine] | 3.0 |
| Cc1cc(OCc2c(F)cccc2F)c2nc(C)c(-c3noc(CC(C)(C)N)n3)n2c1 [Example 131, 1-(3-{8-[(2,6-Difluorobenzyl)oxy]-2,6-dimethylimidazo[1,2-a]pyridin-3-yl}-1,2,4-oxadiazol-5-yl)-2-methylpropan-2-amine] | 1.0 |
| Cc1cc(OCc2c(F)cccc2F)c2nc(C)c(-c3nc(CC(C)(C)N)no3)n2c1.O=CO [Example 132, 1-(5-{8-[(2,6-Difluorobenzyl)oxy]-2,6-dimethylimidazo[1,2-a]pyridin-3-yl}-1,2,4-oxadiazol-3-yl)-2-methylpropan-2-amine formate] | 0.3 |
| Cc1cc(OCc2c(F)cccc2F)c2nc(C)c(-c3nnc(CC(C)(C)N)s3)n2c1.O=CO [Example 133, 1-(5-{8-[(2,6-Difluorobenzyl)oxy]-2,6-dimethylimidazo[1,2-a]pyridin-3-yl}-1,3,4-thiadiazol-2-yl)-2-methylpropan-2-amine formate] | 0.3 |

The remaining lines, values ahead:

| MEC [µM] | Compound |
| --- | --- |
| 0.1 | COC(=O)CCn1cc(-c2c(C)nc3c(OCc4c(F)cccc4F)cc(C)cn23)cn1 [Example 102, Methyl 3-(4-{8-[(2,6-difluorobenzyl)oxy]-2,6-dimethylimidazo[1,2-a]pyridin-3-yl}-1H-pyrazol-1-yl)propanoate] |
| 0.03 | COC(=O)Cn1cc(-c2c(C)nc3c(OCc4c(F)cccc4F)cc(C)cn23)cn1 [Example 103, methyl (4-{8-[(2,6-difluorobenzyl)oxy]-2,6-dimethylimidazo[1,2-a]pyridin-3-yl}-1H-pyrazol-1-yl)acetate] |
| 0.3 | COC(=O)C(C)n1cc(-c2c(C)nc3c(OCc4c(F)cccc4F)cc(C)cn23)cn1 (stereo not shown) [Example 104] |
| 0.01 | COC(=O)CC(C)n1cc(-c2c(C)nc3c(OCc4c(F)cccc4F)cc(C)cn23)cn1 (stereo not shown) [Example 105] |
| 0.3 | COC(=O)C1CC1n1cc(-c2c(C)nc3c(OCc4c(F)cccc4F)cc(C)cn23)cn1 (stereo not shown) [Example 106] |
| 0.065 | Cc1cc(OCc2c(F)cccc2F)c2nc(C)c(-c3cnn(CCC(=O)O)c3)n2c1 [Example 107, 3-(4-{8-[(2,6-Difluorobenzyl)oxy]-2,6-dimethylimidazo[1,2-a]pyridin-3-yl}-1H-pyrazol-1-yl)propanoic acid] |
| 0.3 | Cc1cc(OCc2c(F)cccc2F)c2nc(C)c(-c3cnn(CC(=O)O)c3)n2c1 [Example 108, (4-{8-[(2,6-difluorobenzyl)oxy]-2,6-dimethylimidazo[1,2-a]pyridin-3-yl}-1H-pyrazol-1-yl)acetic acid] |
| 0.3 | Cc1cc(OCc2c(F)cccc2F)c2nc(C)c(-c3cnn(C(C)C(=O)O)c3)n2c1 (stereo not shown) [Example 109] |
| 1.0 | Cc1cc(OCc2c(F)cccc2F)c2nc(C)c(-c3cnn(C4CC4C(=O)O)c3)n2c1 (stereo not shown) [Example 111] |
| 0.03 | Cc1cc(OCc2c(F)cccc2F)c2nc(C)c(-c3cnn(CC(=O)NC4CC4)c3)n2c1 [Example 113, N-Cyclopropyl-2-(4-{8-[(2,6-difluorobenzyl)oxy]-2,6-dimethylimidazo[1,2-a]pyridin-3-yl}-1H-pyrazol-1-yl)acetamide] |
| 0.1 | Cc1cc(OCc2c(F)cccc2F)c2nc(C)c(-c3cnn(CC(N)=O)c3)n2c1 [Example 115, 2-(4-{8-[(2,6-Difluorobenzyl)oxy]-2,6-dimethylimidazo[1,2-a]pyridin-3-yl}-1H-pyrazol-1-yl)acetamide] |
| 0.01 | Cc1cc(OCc2c(F)cccc2F)c2nc(C)c(-c3cnn(CC(C)(C)O)c3)n2c1 [Example 116, 1-(4-{8-[(2,6-Difluorobenzyl)oxy]-2,6-dimethylimidazo[1,2-a]pyridin-3-yl}-1H-pyrazol-1-yl)-2-methylpropan-2-ol] |

From US9776997B2, “3-aryl-substituted imidazo[1,2-A]pyridines and their use” (Bayer Pharma Aktiengesellschaft, priority 2013, dated 2017)
